# Test results as given in ChEMBL document CHEMBL3046379, “Differential activity against aphid settling of flavones obtained from Clytostoma callistegioides (Bignoniaceae)” (2013).
# Key:
# Assay type in all cases: functional
# Rhopalosiphum padi [1] = test: Anti-settling activity against Rhopalosiphum padi in compound treated barley [Hordeum vulgare L. (Poaceae)] foliage leaf assessed as aphids settled on leaf at 50 ug/cm'2 measured 24 hr (reference value: 55 +/- 4 to 90 +/- 3%)
# Myzus persicae [2] = test: Anti-settling activity against Myzus persicae (green peach aphid) in compound treated bell pepper leaf assessed as aphids settled on leaf at 50 ug/cm'2 measured 24 hr (reference value: 52 +/- 7 to 75 +/- 4%)
# Rhopalosiphum padi [3] = test: Anti-settling activity against Rhopalosiphum padi in compound treated barley [Hordeum vulgare L. (Poaceae)] foliage leaf assessed as preference index at 50 ug/cm'2 measured 24 hr
# Myzus persicae [4] = test: Anti-settling activity against Myzus persicae (green peach aphid) in compound treated bell pepper leaf assessed as preference index at 50 ug/cm'2 measured 24 hr
SMILES,Activity (Rhopalosiphum padi [1]) [%],Activity (Myzus persicae [2]) [%],Ratio (Rhopalosiphum padi [3]),Ratio (Myzus persicae [4])
COc1c(O)cc(O)c2c(=O)cc(-c3ccc(O)cc3)oc12 [4'-HYDROXYWOGONIN],44,48,0.1,0
COc1ccc(-c2cc(=O)c3c(O)cc(O)cc3o2)cc1 [ACACETIN],34,44,0.3,0.1
COc1ccc(-c2cc(=O)c3c(O)cc(O)c(OC)c3o2)cc1 [GALANGUSTIN],10,29,0.8,0.4
